# Assay results: US8865748B2, “Compounds and compositions for stabilizing hypoxia inducible factor-2 alpha as a method for treating cancer” (Akebia Therapeutics Inc., priority 2011, dated 2014)
# Experiments:
# B16F10 melanoma tumors = experiment: Murine melanoma tumor model (B16F10 in C57BL/6 mice); format: in vivo; details: for tumor growth: FIG. 14A
# Procedure: Mice were injected with 1×10^5 B16F10 murine melanoma cells murine subcutaneously on the left flank. Once tumors become palpable (approximately 5 days), mice were randomly allocated to receive treatment with either: 20% polyethylene glycol (PEG) in 5% […] (vehicle control for the disclosed HIF-2α stabilizer) and PBS (vehicle control for GM-CSF), 20% PEG and GM-CSF (100 ng per mouse in a 50 μL volume), the disclosed HIF-2α stabilizer (17.5 mg/kg in a 100 μL volume) and PBS, or the disclosed HIF-2α stabilizer and GM-CSF (same doses). The PBS and GM-CSF were administered intratumorally, while the 20% PEG and the disclosed HIF-2α stabilizer were administered intraperitoneally. Mice were treated 3 times per week until tumors reached a size of 20 mm in any dimension (approximately 2.5 weeks), at which point mice were euthanized, in accordance with institutional policy. Tumor diameters were measured 3 times per week with calipers, and tumor volumes were calculated as follows: Tumor volume=0.5×[(large diameter)×(small diameter)^2].
# 6-8-week-old C57BL/6 mice were injected with 1×10^5 B16F10 murine melanoma cells murine subcutaneously on the left flank. Once tumors become palpable (approximately 5 days), mice were randomly allocated to receive treatment with either: 20% PEG-400 in 5% sucrose (vehicle for disclosed HIF-2α stabilizer) and PBS (vehicle for GM-CSF), 20% PEG-400 and GM-CSF (100 ng per mouse in a 50 μL volume), disclosed HIF-2α stabilizer (17.5 mg/kg mouse weight in a 100 μL volume) and PBS, or the disclosed HIF-2α stabilizer and GM-CSF (same concentrations). The disclosed HIF-2α stabilizer (or the vehicle control) was administered intraperitoneally, while GM-CSF (or the vehicle control) was administered intratumorally. Mice were treated […] 3 times per week until tumors reached a size of 20 mm in any dimension (approximately 2.5 weeks), at which point mice were be euthanized, in accordance with institutional policy. Tumor diameters were measured 3 times per week with calipers, and tumor volumes will be calculated as follows: Tumor volume=0.5×[(large diameter)×(small diameter)^2]. For experiments analyzing the effect of neutralizing sVEGFR-1 in combination with disclosed HIF-2α stabilizer treatment, mice were treated intraperitoneally 3×/week with either disclosed HIF-2α stabilizer or vehicle control, and intratumorally with either 4 μg anti-VEGFR-1 neutralizing antibody (R&D Systems) or 4 μg polyclonal goat IgG isotype control (Santa Cruz Biotechnology) in a 50 μL volume. All protocols were approved by the Ohio State University Animal Care and Use Committee, and mice were treated in accordance with institutional guidelines for animal care.
# The ANOVA test was used to compare independent measurements between multiple treatment groups. The data was log-transformed to normalize the variance across groups. P-values were adjusted using the Holm's procedure to conserve the type I error at 0.05 due to the multiple comparisons. For tumor growth data, changes in tumor volume over time were assessed via a longitudinal model. Tumor values were log-transformed, and estimated slopes (changes in tumor volume over time) were calculated with 95% confidence intervals. Estimated differences in tumor volume were calculated by a random-effects regression of the longitudinal data. For all analyses, p≦0.05 was considered statistically significant.
# To confirm that the modulation of tumor growth and angiogenesis was due to sVEGFR-1 production in response to the disclosed HIF-2α stabilizer, mice were treated with the disclosed HIF-2α stabilizer in the presence or absence of an sVEGFR-1 neutralizing Ab.
# 6-8-week-old C57BL/6 mice or SCID mice were injected with 1×10^5 B16F10 murine melanoma cells or 1×10^6 A375 human melanoma cells, respectively, subcutaneously on the left flank. […]
# sVEGFR-1 = sVEGFR-1 production by human peripheral blood monocytes (ELISA, real-time PCR); format: cell-based; details: monocytes stimulated with 100 ng/mL GM-CSF, presence vs. absence of 10 μM stabilizer, FIG. 11B
# Procedure: Human peripheral blood mononuclear cells (PBMCs) were isolated from fresh peripheral blood leukocyte source packs (American Red Cross, Columbus Ohio) by density gradient centrifugation over Lymphocyte Separation Medium (Cellgro). Monocytes were purified from total PBMCs by layering over FBS. Monocytes were cultured in endotoxin-free RPMI-1640 supplemented with 1% fetal bovine serum (FBS), 0.1% human serum albumin (HSA), and 10 μg/mL of the endotoxin inhibitor polymyxin B. In some experiments, freshly isolated monocytes were differentiated into macrophages by three-day culture in media containing 10% FBS, 1% PSA (penicillin G sodium, streptomycin sulfate, and amphotericin B), and 20 ng/mL M-CSF. Macrophages were serum-starved for 2 hours prior to stimulation. Monocytes or monocyte-derived macrophages were treated for 24 hours with 10 ng/mL GM-CSF, 10 μM disclosed HIF-2α stabilizer, or an equivalent volume of the vehicle controls (PBS or DMSO, respectively). Cell-free culture supernatants were harvested and analyzed for VEGF or sVEGFR-1 by ELISA (R&D Systems).
# Human monocytes were left untreated or were stimulated with 100 ng/mL GM-CSF at normoxia or at 0.5% O2. At various time-points, cells were harvested in Trizol reagent (Invitrogen) and RNA was extracted in chloroform and then purified using the RNeasy Minikit (Qiagen). […] Data were analyzed according to the comparative threshold method and normalized against the β-actin internal control transcript. Results are semi-quantitative and represent the fold difference in transcript levels in a particular sample as compared with levels in untreated cells from the same donor.
# Since monocyte production of VEGF was dependent on HIF-1α, the inventors herein determined whether selective stabilization of HIF-1α via inhibition of PHD2 would increase monocyte production of VEGF but not sVEGFR-1. […]
smiles,measurement,setting,value
"O=C(O)CNC(=O)c1ncc(-c2cccc(F)c2)cc1O [disclosed HIF-2α stabilizer, {[5-(3-Fluorophenyl)-3-hydroxypyridine-2-carbonyl]amino}acetic acid]",tumor growth (tumor volume),"B16F10 melanoma tumors; FIG. 3, stabilizer 17 mg/kg I.P., GM-CSF 100 ng per mouse I.T., 3 times per week, vs. PBS control",reduces tumor growth
same,increase in median survival,"B16F10 melanoma tumors; FIG. 12B, median survival defined as the time to a tumor diameter of 20 mm, 17.5 mg/kg intraperitoneal 3x/week, p=0.023",3 days
same,average tumor volumes vs. vehicle controls,"B16F10 melanoma tumors; day 16 of treatment, GM-CSF 100 ng/mouse intratumoral or stabilizer 17.5 mg/kg intraperitoneal, 3x/week, each p<0.001",significantly smaller
same,tumor growth,"B16F10 melanoma tumors; mice also treated with the anti-sVEGFR-1 neutralizing antibody, p=0.245",no effect on tumor growth
same,tumor growth,"B16F10 melanoma tumors; mice treated with an isotype control antibody, p<0.001",decreased tumor growth
same,"sVEGFR-1 production, protein level",sVEGFR-1; p=0.007,increased significantly
same,"sVEGFR-1 production, transcript level",sVEGFR-1; p=0.033,increased significantly
